{"source": "paper PMC6331856", "about": "“Carapanolides T–X from Carapa guianensis (Andiroba) Seeds” (Molecules, 2015)", "key": {"NO production": {"test_system": "NO production", "conditions": "previous study; read-out: inhibitory activity on NO production IC50; cited from earlier work"}, "RAW264.7 cells": {"test_system": "RAW264.7 cells", "assay": "RAW264.7 cell proliferation / cytotoxicity by MTT assay", "type": "cell-based", "protocol": "(§1) Macrophages may be a potential therapeutic target for inflammatory diseases. Activated macrophages release pro-inflammatory mediators, such as NO, reactive oxygen, interleukin-1 beta, tumor necrosis factor-alpha and other inflammatory mediators, which play important roles in biological defense. […] In the present study, four limonoids and N^G-monomethyl-L-arginine acetate (L-NMMA), an inducible nitric oxide synthase (iNOS) inhibitor, were evaluated for their inhibitory effects on NO production in LPS-stimulated RAW264.7 cells (Figure 5). To determine safe concentrations, the cytotoxicities of these limonoids against RAW 264.7 were assessed by the MTT assay.\nRAW264.7 cell proliferation was examined according to a method reported previously with few modifications. Briefly, RAW264.7 cells (5 × 10^4 cells in 100 μL) were seeded onto 96-well microplates and incubated for 24 h. D-MEM (100 μL) containing test samples (final concentration of 100, 30, 10 or 3 μM) dissolved in DMSO (final concentration 0.2%) was added. After the cells had been treated for 24 h, the MTT solution was added. After 3 h of incubation, 20% sodium dodecyl sulfate (SDS) in 0.1 M HCl was added to dissolve the formazan produced by the cells. The absorbance of each well was read at 570 nm using a microplate reader. The optical density of vehicle control cells was assumed to be 100%."}, "[1]": {"test_system": "NO production in LPS-stimulated RAW264.7 cells", "assay": "Inhibitory assay of NO production in LPS-stimulated RAW264.7 cells", "type": "cell-based", "conditions": "Mus musculus, LPS 5 μg/mL, 24 h treatment", "protocol": "as §1\nAn inhibitory assay of nitric oxide production was performed according to a method reported previously with slight modifications. Briefly, RAW264.7 cells (5 × 10^4 cells in 100 μL) were seeded onto 96-well microplates and incubated for 24 h. D-MEM (100 μL) containing test samples (final concentration of 100, 30, 10 or 3 μM) dissolved in DMSO (final concentration 0.2%) and LPS (final concentration of 5 μg/mL) were added. After cells had been treated for 24 h, 50 μL of 0.1% N-(1-naphtyl)ethylenediamine in H2O and 50 μL of 1% sulfanilamide in 5% phosphoric acid were added. After being incubated for 30 min, the absorbance of each well was read at 570 nm using a microplate reader. […]"}, "[2]": {"conditions": "at the effective concentration 10 μM"}}, "data": [{"compound": "6α-acetoxy-7α-deacetoxy-7α-hydroxygedunin", "values": [{"measurement": "IC50", "setting": "NO production", "result": 9.4, "unit": "µM"}]}, {"compound": "CC(=O)O[C@H]1[C@@H](OC(C)=O)[C@]2(C)[C@H](CC[C@@]3(C)[C@H](c4ccoc4)OC(=O)[C@H]4O[C@@]423)[C@@]2(C)C=CC(=O)C(C)(C)[C@H]12", "note": "[6α-acetoxygedunin]", "values": [{"measurement": "IC50", "setting": "NO production", "result": 7.9, "unit": "µM"}]}, {"compound": "CC(=O)O[C@@H]1[C@H](O)C2C(C)(C)C(=O)C=C[C@]2(C)C2CC[C@@]3(C)[C@H](c4ccoc4)OC(=O)[C@H]4O[C@]43[C@@]21C", "note": "(stereo partly drawn) [6α-hydroxygedunin]", "values": [{"measurement": "IC50", "setting": "NO production", "result": 19.1, "unit": "µM"}]}, {"compound": "CC1(C)C(=O)C=CC2(C)C1CC(O)C1(C)C2CCC2(C)C(c3ccoc3)OC(=O)C3OC321", "note": "(stereo not drawn) [7-deacetoxy-7-hydroxygedunin]", "values": [{"measurement": "IC50", "setting": "NO production", "result": 8.4, "unit": "µM"}]}, {"compound": "CC1(C)C(=O)C=CC2(C)C1CC(=O)C1(C)C2CCC2(C)C(c3ccoc3)OC(=O)C3OC321", "note": "(stereo not drawn) [7-deacetoxy-7-oxogedunin]", "values": [{"measurement": "IC50", "setting": "NO production", "result": 12.8, "unit": "µM"}]}, {"compound": "COC(=O)CC1C(C)(C)C(OC(=O)C(C)C)C2(O)CC3(O)C4=CC(=O)OC(c5ccoc5)C4(C)CCC3C1(C)C2=O", "note": "(stereo not drawn) [Compound 1, Carapanolide T]", "values": [{"measurement": "melting point", "result": "83 to 85", "unit": "°C"}, {"measurement": "cytotoxicity against RAW264.7", "setting": "RAW264.7 cells; at 30 μM", "result": "low cytotoxicity"}, {"measurement": "cytotoxicity against RAW264.7", "setting": "RAW264.7 cells; [2]", "result": "not at the effective concentration"}, {"measurement": "IC50", "setting": "[1]", "result": 22, "unit": "µM"}]}, {"compound": "CC=C(C)C(=O)OC1C2(O)CC3(O)C4=CC(=O)OC(c5ccoc5)C4(C)CCC3C(C)(C2=O)C(CC(=O)OC)C1(C)C", "note": "(stereo not drawn) [Compound 2, Carapanolide U]", "values": [{"measurement": "melting point", "result": "133 to 136", "unit": "°C"}, {"measurement": "cytotoxicity against RAW264.7", "setting": "RAW264.7 cells; at 1–30 μM", "result": "did not show cytotoxicities"}, {"measurement": "cytotoxicity against RAW264.7", "setting": "RAW264.7 cells; [2]", "result": "not at an effective concentration"}, {"measurement": "IC50", "setting": "[1]", "result": 23.3, "unit": "µM"}]}, {"compound": "CC(=O)O[C@@H]1C[C@H]2C(C)(C)C(=O)C=C[C@]2(C)[C@H]2CC[C@@]3(C)[C@H](c4ccoc4)OC(=O)[C@H]4O[C@]43[C@@]21C", "note": "[gedunin]", "values": [{"measurement": "IC50", "setting": "NO production", "result": 4.6, "unit": "µM"}]}, {"compound": "carapanolide J", "values": [{"measurement": "IC50", "setting": "NO production", "result": 37.4, "unit": "µM"}]}]}
